One series deals with MM1S cells. Put plainly: Cell viability assay (MTS assay), MM1S cells. The note with it: 48 hours. It is filed as cell-based, human. The protocol:
In vitro synergy between COMPOUND 1 and bortezomib or melphalan was assessed using the median effect method of Chou and Talalay (30). Combination indices (CIs) were calculated separately for each combination. […] CIs between 0.9 and 1.1 were considered to indicate additive drug effects (31).
On the technique in general: Tetrazolium assays rely on reduction of a dye to a coloured formazan, in cell work by metabolically active cells.

A further series can be described thus: in vitro. The note with it: human. An excerpt: (§1) The human myeloma cell line RPMI8226 was obtained from American Type Culture Collection (Rockville, Md.). The MM1S myeloma cell line was provided by Dr. Steven Rosen (Northwestern University, Chicago, Ill.). Normal peripheral blood mononuclear cells (PBMCs) were isolated by Histopaque® density gradient centrifugation, according to the manufacturer's protocol (Sigma-Aldrich, St. Louis, Mo.). Myeloma cell lines and PBMCs were maintained in RPMI 1640 (Omega Scientific, Tarzana, Calif.) supplemented with 10% fetal bovine serum, 2 mM L-glutamine, 100 IU/mL penicillin, 100 μg/mL streptomycin, and essential amino acids in an atmosphere of 5% carbon dioxide (CO2) at 37° C.
(§2) Cells were seeded at 10^5 cells/100 μL/well in 96-well plates and incubated for 24 hours. RPMI8226 and MM1S cells were cultured in the presence of vehicle, COMPOUND 1, bortezomib, melphalan, COMPOUND 1+bortezomib, or COMPOUND 1+melphalan for 48 hours. After the incubation period, cell viability was quantified using the CellTiter 96® AQueous Non-Radioactive Cell Proliferation Assay (Promega, Madison, Wis.). Each well was treated with MTS (3-(4,5-dimethylthiazol-2-yl)-5-(3-carboxymethoxyphenyl)-2-(4-sulfophenyl)-2H-tetrazolium, inner salt) for 1 to 4 hours, after which absorbance was recorded at 490 nm. The quantity of formazan product as measured by absorbance at 490 nm is directly proportional to the number of living cells in culture.
(§3) In order for therapy with two or more PIs to be feasible in vivo, the combination must spare non-neoplastic cells. […] A healthy donor's PBMCs were cultured for 48 hours in the presence of COMPOUND 1 alone, bortezomib alone, or both agents together, and cell viability was quantified by MTS assay.

The test system of series [1] is normal peripheral blood mononuclear cells (PBMCs). The experiment in a line: in vitro.
Text: as §1, §2, §3

The next series concerns LAGλ-1. The experiment in a line: LAGλ-1 MM tumor model. It is filed as in vivo. The note with it: COMPOUND 1 monotherapy.
In series [2] the test system is apoptosis-inducing factor (AIF). Put plainly: Immunohistochemical analysis of AIF expression in LAGκ-1B tumors. Format: in vivo, SCID mice. The note with it: COMPOUND 1 1 mg/kg, bortezomib 0.5 mg/kg, alone or both; tumors excised post-treatment. The protocol: LAGκ-1B tumors were fixed in 4% paraformaldehyde and cut into 5 μm sections. Briefly, sections were blocked with Tris-buffered saline with 0.05% Tween-20 (TBST) and 3% BSA for 1 hour at room temperature and then incubated overnight with a rabbit antibody against AIF (Sigma, St. Louis, Mo.). The sections were washed three times with TBST and treated with horse radish […] anti-rabbit antibody (KPL, Gaithersburg, Md.) diluted 1:500 in TBST at room temperature for 2 hours. The slides were washed three times in TBST and placed in 3-amino-9-ethylcarbazole (AEC) buffer for 5 minutes, and color was detected using an AEC kit (Dako, Glostrup, Denmark). Staining was documented using an Olympus BX51 microscope (Olympus Imaging America Inc., Center Valley, Pa.) and analyzed by Microsuite Biological Suite program (Olympus BX51).

Each structure is given as a SMILES string.

As a reminder, the viability is the share of living cells, or the viability signal relative to a control. As for `CC(C)C[C@H](NC(=O)[C@@H](NC(=O)c1cccc(-c2ccccc2)n1)[C@@H](C)O)B(O)O` [COMPOUND 1, [(1R)-1-[[(2S,3R)-3-hydroxy-2-[6-phenyl-pyridine-2-carbonyl)amino]-1-oxobutyl]amino]-3-methylbutylboronic acid], the inhibition of viability result in the series with MM1S cells (COMPOUND 1 0.1-10 nM) was “concentration-dependent inhibition of viability”. The cytotoxicity at 0.00175 µM in the series on MM1S cells (Homo sapiens, MM1.S, single-agent COMPOUND 1 1.75 nM, read-out: inhibition of cell viability) is about 16%. Further, the viability at 48 h, 0.009 µM in the series “in vitro” is about 75%. The “cytotoxic effects on normal PBMCs” value in series [1] is “negligible cytotoxic effects”. Moreover, the “Ig levels and tumor volumes” value in the series with LAGλ-1 is given as “statistically significant reduction”. Further, in series [2], the “AIF expression vs vehicle-treated tumors” value is “elevated AIF expression”.

The values are drawn from US8765720B2, “Combination therapy for the treatment of multiple myeloma” (Cephalon, Inc., priority 2009, dated 2014).
